Measurements taken from ChEMBL document CHEMBL2203118, “Ethyl 2,4,6-trihydroxybenzoate is an agonistic ligand for liver X receptor that induces cholesterol efflux from macrophages without affecting lipid accumulation in HepG2 cells” (Bioorg Med Chem Lett, 2012).
Activity calls are given as the source filed them. The calls are words filed in the database; no cut-off is given here.

Assays:
[1] = target: T1, Oxysterols receptor LXR-alpha (Homo sapiens, UniProt Q13133); test: Agonist activity at human LXR-alpha assessed as increase in recruitment of Trap 220/Drip2 coactivator peptide by TR-FRET assay; format: functional
T1 sequence (Q13133 whole entry): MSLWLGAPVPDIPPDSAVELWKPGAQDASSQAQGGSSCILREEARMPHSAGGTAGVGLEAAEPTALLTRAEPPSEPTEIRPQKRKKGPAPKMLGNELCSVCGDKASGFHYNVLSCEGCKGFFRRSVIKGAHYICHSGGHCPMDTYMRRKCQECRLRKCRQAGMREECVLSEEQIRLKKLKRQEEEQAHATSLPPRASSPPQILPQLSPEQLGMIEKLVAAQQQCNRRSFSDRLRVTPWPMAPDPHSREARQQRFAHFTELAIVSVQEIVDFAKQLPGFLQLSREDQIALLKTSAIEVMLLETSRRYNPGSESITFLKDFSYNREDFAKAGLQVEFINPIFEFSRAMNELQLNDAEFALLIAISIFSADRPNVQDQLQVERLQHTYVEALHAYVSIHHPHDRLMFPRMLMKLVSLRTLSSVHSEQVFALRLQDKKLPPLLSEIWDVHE

HepG2 [2] = test: Reduction in SCD-1 gene expression in human HepG2 cells at 50 uM by qPCR analysis relative to control; format: functional; parameters: scale not given: the % may be the effect or the level left
[3] = target: T2, Liver X receptor (Homo sapiens) (UniProt Q13133+P55055); test: Agonist activity at LXR in human THP1 monocytes assessed as increase in ABCG1 mRNA level at 100 uM after 48 hrs by qPCR analysis relative to control; format: functional, cell-based
[4] = target: T2, Liver X receptor (Homo sapiens); test: Agonist activity at LXR in human Caco2 cells assessed as increase in ABCG8 mRNA level at 100 uM after 48 hrs by qPCR analysis relative to control; format: functional, cell-based; settings: Caco-2
HepG2 [5] = test: Upregulation of SREBP-1 gene expression in human HepG2 cells at 50 to 100 uM by qPCR analysis relative to control relative to control; format: ADME, cell-based; settings: hepg2, 100 µM
HepG2 [6] = test: Cytotoxicity against human HepG2 cells after 48 hrs by MTT assay; format: cell-based; settings: hepg2, 48 h
[7] = Agonist activity at LXR in mouse RAW 264.7 assessed as induction of ABCA1 mRNA expression at 100 uM after 48 hrs by qPCR analysis relative to control; format: functional
[8] = target: T3, Oxysterols receptor LXR-beta (Homo sapiens) (UniProt P55055); test: (§1) Agonist activity at human LXR-beta assessed as increase in recruitment of Trap 220/D22 coactivator peptide by TR-FRET assay; format: functional
T3 sequence (whole entry): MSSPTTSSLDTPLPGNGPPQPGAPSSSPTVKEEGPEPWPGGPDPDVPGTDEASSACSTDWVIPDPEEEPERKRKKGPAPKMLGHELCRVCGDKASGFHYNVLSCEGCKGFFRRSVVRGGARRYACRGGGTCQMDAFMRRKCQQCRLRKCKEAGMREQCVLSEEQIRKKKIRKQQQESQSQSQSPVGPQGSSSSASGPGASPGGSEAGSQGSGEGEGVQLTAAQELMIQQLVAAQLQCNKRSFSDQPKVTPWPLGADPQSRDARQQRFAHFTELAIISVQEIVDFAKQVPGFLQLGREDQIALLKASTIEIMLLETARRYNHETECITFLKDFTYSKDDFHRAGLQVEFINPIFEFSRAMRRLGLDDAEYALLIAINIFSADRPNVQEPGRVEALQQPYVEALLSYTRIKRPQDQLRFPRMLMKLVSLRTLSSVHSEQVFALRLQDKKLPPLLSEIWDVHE

[9] = target: T4, Oxysterols receptor LXR-beta (Homo sapiens, UniProt P55055); test: as §1; format: functional
T4 sequence (P55055 whole entry): T3 sequence (whole entry)

HepG2 [10] = test: Upregulation of CPT-1 gene expression in human HepG2 at 100 uM by qPCR analysis relative to control; format: functional, cell-based
HepG2 [11] = test: Upregulation of ACOX gene expression in human HepG2 at 100 uM by qPCR analysis relative to control; format: functional, cell-based
HepG2 [12] = test: Upregulation of SREBP-1 gene expression in human HepG2 cells at 50 to 100 uM by immunoblot analysis; format: ADME, cell-based; settings: hepg2, 100 µM
[13] = target: T2, Liver X receptor (Homo sapiens); test: Agonist activity at LXR in human THP1 cells assessed as induction of ABCA1 mRNA expression at 100 uM after 48 hrs by qPCR analysis relative to control; format: functional, cell-based; settings: THP-1
HepG2 [14] = test: Induction of lipid accumulation in human HepG2 cells assessed as increase in cellular triglyceride level at 50 to 100 uM by Oil Red O staining relative to control; format: cell-based; settings: hepg2, 100 µM
[15] = target: T1, Oxysterols receptor LXR-alpha; test: Transactivation of human LXR-alpha transfected in HEK293 cells after 24 hrs by luciferase reporter gene assay; format: cell-based
[16] = target: T2, Liver X receptor (Homo sapiens); test: Agonist activity at LXR in human THP1 cells assessed as induction of ABCG1 gene expression after 48 hrs by qPCR analysis; format: functional, cell-based; settings: THP-1
[17] = target: T5, Peroxisome proliferator-activated receptor alpha (Homo sapiens) (UniProt Q07869); test: Transactivation of PPAR-alpha transfected in HEK293 cells at 50 to 100 uM after 24 hrs by luciferase reporter gene assay; format: cell-based
T5 sequence (whole entry): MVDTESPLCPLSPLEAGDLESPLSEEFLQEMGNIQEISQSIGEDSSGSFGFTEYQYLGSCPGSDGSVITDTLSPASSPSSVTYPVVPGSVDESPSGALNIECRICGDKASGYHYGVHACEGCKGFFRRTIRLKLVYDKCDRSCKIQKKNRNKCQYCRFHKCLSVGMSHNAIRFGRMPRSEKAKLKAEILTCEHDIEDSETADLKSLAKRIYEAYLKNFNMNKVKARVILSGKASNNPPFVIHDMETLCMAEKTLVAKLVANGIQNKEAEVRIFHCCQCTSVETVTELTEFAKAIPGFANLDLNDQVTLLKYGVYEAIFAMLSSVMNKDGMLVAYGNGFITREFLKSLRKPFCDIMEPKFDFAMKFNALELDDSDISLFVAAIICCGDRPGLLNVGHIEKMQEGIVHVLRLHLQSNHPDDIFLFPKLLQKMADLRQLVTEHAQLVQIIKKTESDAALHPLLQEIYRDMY

[18] = target: T2, Liver X receptor (Homo sapiens); test: Agonist activity at LXR in human Caco2 cells assessed as decrease in NPC1L1 mRNA level at 100 uM after 48 hrs by qPCR analysis relative to control; format: functional, cell-based; parameters: scale not given: the % may be the effect or the level left; settings: Caco-2
[19] = target: T6, Oxysterols receptor LXR-alpha (Homo sapiens) (UniProt Q13133); test: Agonist activity at LXR-alpha in human Caco2 cells assessed as reduction in cellular cholesterol level; format: functional, cell-based; settings: Caco-2
T6 sequence (whole entry): T1 sequence (Q13133 whole entry)

[20] = target: T6, Oxysterols receptor LXR-alpha (Homo sapiens); test: Transactivation of human LXR-alpha transfected in HEK293 cells at 100 uM after 24 hrs by luciferase reporter gene assay; format: cell-based
[21] = target: T2, Liver X receptor (Homo sapiens); test: Agonist activity at LXR in human THP1 cells assessed as increase in ApoE mRNA level at 100 uM after 48 hrs by qPCR analysis relative to control; format: functional, cell-based; settings: THP-1
HepG2 [22] = test: Induction of lipid accumulation in human HepG2 cells assessed as cellular triglyceride concentration at 50 to 100 uM; format: cell-based; settings: hepg2, 100 µM

**Q.** Which EC50 [1] does the source give for `CCOC(=O)c1c(O)cc(O)cc1O` here?
**A.** Its EC50 is 1.5 µM.

**Q.** What about the Activity (HepG2 [2]) of the same molecule?
**A.** The Activity was 47.6%.

**Q.** And the fold change (FC) [3]?
**A.** The fold change (FC) was 5.2.

**Q.** And the fold change (FC) [4]?
**A.** The fold change (FC) was 1.5.

**Q.** And the Activity (HepG2 [5])?
**A.** The Activity was “Non-toxic”.

**Q.** What about the Activity (HepG2 [6]) of the same molecule?
**A.** The Activity was “Non-toxic”.

**Q.** And the “fold change (FC)” value [7]?
**A.** The value was 2.1.

**Q.** And the Activity [8]?
**A.** The Activity was “Dose-dependent effect”.

**Q.** And the EC50 [9]?
**A.** Its EC50 is 3.04 µM.

**Q.** What about the Activity (HepG2 [10]) of the same molecule?
**A.** Its Activity is “Active”.

**Q.** What about the Activity (HepG2 [11]) of the same molecule?
**A.** The Activity was “Active”.

**Q.** What about the Activity (HepG2 [12]) of the same molecule?
**A.** The Activity was “Non-toxic”.

**Q.** And the fold change (FC) [13]?
**A.** The fold change (FC) was 7.4.

**Q.** And the Activity (HepG2 [14])?
**A.** The Activity was “Non-toxic”.

**Q.** What about the EC50 [15] of the same molecule?
**A.** The EC50 was 80.8 µM.

**Q.** What about the Activity [16] of the same molecule?
**A.** Its Activity is “Dose-dependent effect”.

**Q.** What about the Activity [17] of the same molecule?
**A.** Its Activity is “inactive”.

**Q.** What about the Activity [18] of the same molecule?
**A.** The Activity was 33.2%.

**Q.** And the Activity [19]?
**A.** The Activity was “Dose-dependent effect”.

**Q.** What about the Activity [20] of the same molecule?
**A.** Its Activity is 64%.

**Q.** What about the fold change (FC) [21] of the same molecule?
**A.** Its fold change (FC) is 1.9.

**Q.** What about the Activity (HepG2 [22]) of the same molecule?
**A.** The Activity was “Non-toxic”.
